In the OligoGym collection:
“And” between values parts separate entries of the source, which are not always exact repeats. Equal values may be shown once. After the bases stand the sugars from the 5' end (letter, count) and the backbone: PS all phosphorothioate, else s phosphorothioate and o phosphodiester by linkage. Methylation of C is not given here. e = 2'-O-(2-methoxyethyl) (MOE); k = constrained ethyl (cEt); d = 2'-deoxy (DNA)

Biological target: SOD1
Conditions: ASO

Sequence | target mRNA inhibition (A431, 0.12 µM) [%] | target mRNA inhibition (A431, 0.6 µM) [%] | target mRNA inhibition (A431, 3 µM) [%] | target mRNA inhibition (A431, 15 µM) [%] | target mRNA inhibition (HepG2, 0.222 µM) [%] | target mRNA inhibition (HepG2, 0.667 µM) [%] | target mRNA inhibition (HepG2, 2 µM) [%] | target mRNA inhibition (HepG2, 6 µM) [%] | also measured
AGTGTTTAATGTTTATC (sugars e2 k2 d8 k2 e3, linkages s1 o2 s9 o2 s2) | 31 | 68 | 83 | 86 | 68 | 76 | 86 | 84 | 
AGTGTTTAATGTTTATC (sugars e3 k2 d7 k2 e3, PS) |  |  |  |  |  |  |  |  | target mRNA inhibition (HepG2, 0.1875 µM): 52%; target mRNA inhibition (HepG2, 0.75 µM): 78%; target mRNA inhibition (HepG2, 3 µM): 67% and 86%; target mRNA inhibition (HepG2, 12 µM): 85%
AGTTTAATACCCATCTG (sugars e3 k2 d7 k2 e3, PS) |  |  |  |  |  |  |  |  | target mRNA inhibition (HepG2, 3 µM): 10%
ATAACAGATGAGTTAAG (sugars e2 k2 d8 k2 e3, PS) |  |  |  |  |  |  |  |  | target mRNA inhibition (HepG2, 4 µM): 27%
ATAACAGATGAGTTAAG (sugars e2 k2 d9 k2 e2, PS) |  |  |  |  |  |  |  |  | target mRNA inhibition (HepG2, 4 µM): 42%
ATACAGGTCATTGAAAC (sugars e2 k2 d9 k2 e2, PS) |  |  |  |  |  |  |  |  | target mRNA inhibition (HepG2, 5 µM): 22%
ATACATTTCTACAGCT (sugars ekddddddddekekee, linkages s1 o1 s8 o3 s2) | 0 | 9 | 0 | 25 | 43 | 58 | 79 | 91 | 
ATACATTTCTACAGCT (sugars kekeddddddddekek, linkages s1 o3 s8 o1 s2) | 15 | 14 | 16 | 52 | 55 | 73 | 89 | 95 | 
ATACATTTCTACAGCTA (sugars e3 k2 d7 k2 e3, linkages s1 o2 s9 o2 s2) | 4 | 13 | 26 | 37 |  |  |  |  | 
ATACATTTCTACAGCTAG (sugars e5 d8 e5, linkages s1 o3 s9 o2 s2) | 9 | 10 | 27 | 43 | 7 | 28 | 54 | 79 | 
